Experimental data published in the Kinase Knowledgebase extract (Sharma et al. 2016).
pIC50: −log10 of the molar value.

biological target: MAPK14 (human) (UniProt Q16539); assay: Inhibition of MAPK14 Kinase Activity
Sequence (Q16539 whole entry, looked up): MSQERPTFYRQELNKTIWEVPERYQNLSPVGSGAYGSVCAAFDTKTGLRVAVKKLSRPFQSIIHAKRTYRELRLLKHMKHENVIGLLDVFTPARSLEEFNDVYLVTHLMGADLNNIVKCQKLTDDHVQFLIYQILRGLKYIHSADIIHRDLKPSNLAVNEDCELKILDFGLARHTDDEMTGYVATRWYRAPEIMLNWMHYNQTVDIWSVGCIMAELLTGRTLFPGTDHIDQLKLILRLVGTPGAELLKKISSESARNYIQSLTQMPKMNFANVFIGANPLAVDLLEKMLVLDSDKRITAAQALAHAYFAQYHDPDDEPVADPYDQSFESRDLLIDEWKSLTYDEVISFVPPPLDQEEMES

pIC50, > 4.82:
COC(=O)c1sc(NC(=O)Nc2cc(C(C)(C)C)nn2-c2ccc(F)cc2)c(C)c1Cl, CC(C)(C)c1cc(NC(=O)Nc2ccc(C(=O)N3CCOCC3)s2)n(-c2ccc(F)cc2)n1, Cc1c(NC(=O)Nc2nnc(C3CCCCC3)s2)sc(C(=O)N2CCOCC2)c1Cl, Cc1c(NC(=O)Nc2cc(C(C)(C)C)nn2-c2ccc(F)cc2)sc(C(=O)N2CCOCC2)c1Cl, Cc1c(NC(=O)Nc2cc(C(C)(C)C)nn2-c2ccc(F)cc2)sc(C(=O)N2CCN(C)CC2)c1Cl, COC(=O)c1sc(NC(=O)Nc2cc(C(C)(C)C)nn2-c2ccc(F)cc2)c(C#N)c1C, Cc1c(NC(=O)c2cc(F)cc(N3CCOCC3)c2)sc(C(=O)N2CCOCC2)c1Cl, Cc1cc(NC(=O)c2cc(F)cc(N3CCOCC3)c2)sc1C(=O)N1CCOCC1, Cc1c(NC(=O)Nc2cc(C(C)(C)C)nn2-c2ccc(F)cc2F)sc(C(=O)N2CCOCC2)c1Cl, COC(=O)c1sc(NC(=O)c2ccc(F)cc2)c(C)c1C#N, COC(=O)c1sc(NC(=O)c2cc(F)cc(N3CCOCC3)c2)c(C)c1Cl, Cc1c(NC(=O)Nc2nnc(N3CCOCC3)s2)sc(C(=O)N2CCOCC2)c1Cl, Cc1c(NC(=O)Nc2cc(C(C)(C)C)nn2-c2ccc(F)cc2)sc(C(=O)NCc2ccncc2)c1Cl, CCOC(=O)c1ccc(NC(=O)Nc2cc(C(C)(C)C)nn2-c2ccc(F)cc2)s1, Cc1c(NC(=O)c2ccc(F)cc2)sc(C(=O)Nc2ccc(F)cc2)c1Cl, Cc1c(NC(=O)c2cc(F)cc(N3CCOCC3)c2)sc(C(=O)Nc2ccc(F)cc2)c1Cl, Cc1c(NC(=O)c2ccc(F)cc2)sc(C(=O)N2CCOCC2)c1Cl
